Experimental data: publication PMC6599048, “Polyhistidine facilitates direct membrane translocation of cell-penetrating peptides into cells” (Scientific Reports, 2019)
Primed or numbered codes have the meaning given here. Ends that are not written are not given here. FITC′ = fluorescein isothiocyanate label

Legend:
A549 cells [1] = experiment: MTT cytotoxicity assay, A549; conditions: 6 μM HL6, 0.3 μM QDs or complexes at ratio 20, 37 °C 30 min, then 24 h in complete medium, twelve independent experiments
HeLa cells = experiment: MTT cytotoxicity assay, HeLa; conditions: 6 μM HL6, 0.3 μM QDs or complexes at ratio 20, 37 °C 30 min, then 24 h in complete medium, twelve independent experiments
Experimental: One hundred % DMSO and serum-free medium were used to treat cells for 30 min as positive and negative controls, respectively. HeLa cells were pretreated with 4 °C for 30 min or heparinases I, II, and III for 6 h. Cells were then treated with HL6/QD complexes (prepared at a ratio of 20 at 37 °C for 1 h) in the absence or presence of various endocytic inhibitors at 37 °C for 30 min. After treatment, cells were washed with PBS and then incubated in complete culture medium at 37 °C for 24 h. Eighty μl of serum-free medium and 20 μl of 3-(4,5-dimethylthiazol-2-yl)-2,5-diphenyltetrazolium bromide (MTT, Sigma-Aldrich; 5 mg/ml in PBS) solution were added to each well. After incubation at 37 °C for 30 min, […] formazan crystals converted only by metabolically living cells were dissolved in 300 μl of DMSO. The 24-well plates were then read using a SpectraMax M2 microplate reader with SoftMax Pro 6.3 microplate analysis software (Molecular Devices, Sunnyvale, CA, USA) at 540 nm wavelength.

human A549 cells = experiment: Cellular internalization of FITC-CPPs, fluorescent microscopy; type: cell-based; conditions: 80 μM, serum-free RPMI 1640, 37 °C, 1 h, Hoechst 33342 counterstain
Experimental: (§1) A549 cells were washed with phosphate buffered saline (PBS) and changed to serum-free RPMI 1640 medium for protein transduction experiments. The presence of 10% serum in the medium as the solvent caused a decrease in the uptake of CPPs or their complexes/conjugates. For cellular internalization, cells were seeded at a density of about 1 × 10^5 per 35-mm petri dish and then treated with serum-free medium (as a control), 80 μM of FITC isomer I (Sigma-Aldrich, St. Louis, MO, USA), FITC-nonCPP, FITC-L6, FITC-HL6, or FITC-HR9 at 37 °C for either 1 h or various time durations. The fluorescent tracker Hoechst 33342 was used to stain the nuclei of cells in blue, according to the manufacturer’s instructions (Thermo Fisher).
Bright-field and fluorescent images were captured using an AE31 inverted Epi-fluorescence microscope (Motic, Hong Kong, China) equipped with an IS1000 eyepiece (Tucsen, Fujian, China)[17]. Excitation filter modules of green and blue fluorescent protein (GFP, BFP) channels were set at 480/30 and 350/50 nm, respectively. Emission filter modules of GFP and BFP channels were set at 535/40 and 460/50 nm, respectively.

A549 cells [2] = experiment: Time course of cellular internalization of FITC-CPPs, flow cytometry; type: cell-based, human; conditions: 80 μM, 37 °C
Experimental: as §1
Cells were seeded at a density of about 2 × 10^5 per well in a 24-well plate. Following the protein transduction, cells were washed with PBS and harvested by adding 250 μl/well of 2.9 mM ethylenediaminetetraacetic acid (EDTA, pH 6.14)[22]. […] Digital measurements were analyzed using Cell Lab Quanta SC MPL software version 1.0 (Beckman Coulter).

Row | Substance | green fluorescence in cells (cellular internalization) (human A549 cells) | time by which green fluorescence was present (A549 cells [2]; serum-free medium) | also measured
1 | CHHHHHRRWQWRHHHHHC [HL6] |  |  | cytotoxicity (cell viability, MTT) (A549 cells [1]): No cytotoxicity was detected; cytotoxicity (cell viability, MTT) (HeLa cells): No cytotoxicity was detected
2 | fluorescein isothiocyanate [FITC, reference compound] | did not display green fluorescence |  | 
3 | CHHHHHRRRRRRRRRHHHHHC [FITC-HR9, reference compound] |  | ≤ 5 min | fraction of cells showing uptake, comparison between FITC-CPPs (A549 cells [2]; all time points): higher with FITC-HR9-treated cells than FITC-HL6 and FITC-L6 at all time points
4 | FITC-HL6: N-terminal fluorescein isothiocyanate (FITC) labeled HL6 ({FITC′}-CHHHHHRRWQWRHHHHHC; cysteine pairing not given here) | green fluorescence | ≤ 5 min | uptake relative to the FITC-L6 group (A549 cells [2]; 60 min, serum-free medium, seven independent experiments in triplicates): 46.7 times
